{"source": "paper PMC11726016", "about": "(Cancer Discovery, 2024)", "key": {"[1]": {"tested_on": "DOHH-2 tumors", "assay": "DOHH-2 tumor study, AM-9747 vs LLY-283", "assay_type": "in vivo, mouse", "conditions": "LLY-283 30 mg/kg, AM-9747 100 mg/kg PO QD"}, "[2]": {"tested_on": "endogenous MTAP WT and MTAP-deleted cancer cell lines", "assay": "Viability in a panel of endogenous MTAP WT and MTAP-deleted cancer cells", "assay_type": "cell-based, human", "conditions": "6 days"}, "[3]": {"tested_on": "SDMA and γH2AX in bone marrow, blood and DOHH-2 tumor", "assay": "Pharmacodynamics and MOA in vivo assay", "conditions": "DOHH-2 study, Day 11; LLY-283 30 mg/kg, AM-9747 100 mg/kg PO QD"}, "[4]": {"tested_on": "bone marrow progenitors and circulating blood cells", "assay": "Bone marrow progenitor populations and circulating blood cells", "assay_type": "in vivo, mouse", "conditions": "DOHH-2 study; LLY-283 30 mg/kg, AM-9747 100 mg/kg PO QD"}}, "data": [{"smiles": "Nc1ncnc2c1ccn2[C@@H]1O[C@H]([C@H](O)c2ccccc2)[C@@H](O)[C@H]1O", "note": "[LLY-283]", "values": [{"measurement": "tumor-free mice", "setting": "[1]", "result": "2/10"}, {"measurement": "relation of MTAP status to sensitivity in the cell panel", "setting": "[2]", "result": "MTAP status did not track closely with sensitivity"}, {"measurement": "Blood SDMA decrease", "setting": "[3]", "result": 79, "unit": "%"}, {"measurement": "Bone marrow SDMA decrease", "setting": "[3]", "result": 71, "unit": "%"}, {"measurement": "Tumor SDMA decrease", "setting": "[3]", "result": 21, "unit": "%"}, {"measurement": "circulating blood cells (RBC, reticulocytes, platelets)", "setting": "[4]", "result": "highly substantial reductions in red blood cells (RBC), reticulocytes, and platelets"}, {"measurement": "megakaryocytic and erythroid progenitors (MEP) population in bone marrow", "setting": "[4]", "result": "substantial reduction"}]}]}
